# Columns and labels:
# P. falciparum MSP142 = target: T1, P. falciparum MSP142 (Plasmodium falciparum, UniProt Q8I0U8); assay: binding of suramin to MSP1 by fluorimetry
# T1 construct: was used to express a His6-tagged MSP142 protein; His6; made in house; host or cells: E. coli BL21 (DE3)
# Method: The pETATPf MSP142 plasmid (described by Angov et al, 2003 Mol. Biochem. Parasitol. 128, 195-204) was used to express a His6-tagged MSP142 protein (P. falciparum 3D7 clone, Accession Number Z35327). The DNA was used to transform E. coli BL21 (DE3) cells and then clones were selected on plates of agar containing ampicillin. Cells expressing the modified MSP142 were grown to mid log phase (OD6000.5-0.8) at 37° C., then after the incubation temperature had been reduced to 25° C., the protein expression was induced by addition of 0.1 mM IPTG. After 2 h of further growth the bacterial cells were harvested by centrifugation. The resulting cell paste was resuspended in lysis buffer (10 mM sodium phosphate, 50 mM NaCl, 10 mM imidazole, pH 6.2) and lysed by microfluidization. […]
# The intrinsic fluorescence of suramin was used to determine its capacity to bind to the various MSP1-derived proteins. The fluorescence was measured using a Perkin Elmer LS-3B or a Spex Fluoro Max 2 fluorimeter. Suramin was excited at a wavelength of 315 or 330 nm with 2.5 nm resolution, the emission spectra were measured at wavelengths ranging from 350-450 nm. Suramin and the MSP1 proteins were diluted in 20 mM NaH2PO4, 150 mM NaCl at pH 7.2 and analysed at 10 or 20° C. […] The Kd for the suramin-MSP1 binding was determined from three independent experiments. […]
# [1] = target: T2, MSP119 from P. falciparum (Plasmodium falciparum, UniProt P04933, S1528A); assay: NMR titration of 15N labelled MSP119 with suramin; format: binding
# T2 construct: contained the 96 amino acid MSP119 fragment, preceded by a single His residue; N-terminal leader […]; (His6 + Factor Xa site); made in house; host or cells: Pichia pastoris (vector pPIC9K)
# Excerpt: Plasmodium falciparum MSP119 (Swiss-Prot 04933) was expressed from a synthetic gene optimised for Pichia pastoris expression (European Patent No. EP1180120). This construct, inserted at the SnaBI site of vector pPIC9K (Invitrogen), contained the N-terminal leader sequence YHHHHHHIEGRH preceding the MSP119 sequence. A point mutation (Ser3 to Ala) was also introduced to eliminate N-glycosylation at Asn1. Following purification of MSP119 as described previously (Morgan et al, 1999 J. Mol. Biol. 289, 113-122), the N-terminal tag was cleaved with Factor Xa (New England Biolabs) and MSP119 was purified by gel filtration (Superdex 200). The fmal product contained the 96 amino acid MSP119 fragment, preceded by a single His residue.
# NMR experiments were carried out on Varian spectrometers operating at proton frequencies of 500, 600 and 800 MHz. Suramin (0.03-16.0 mM) ^1H spectra were recorded at 5 to 35° C. […] MSP119/suramin samples were examined with either unlablled or ^15N labelled MSP119 in 50 mM sodium phosphate and 100 mM NaCl in 90% H2O/10% D2O at pH 6.5 (pH values are pH meter readings uncorrected for deuterium isotope effects). […] 1D ^1H and 2D ^1H-^15N HSQC NMR spectra were recorded for each concentration of suramin. […]
# T1 sequence (Q8I0U8 1327-1699): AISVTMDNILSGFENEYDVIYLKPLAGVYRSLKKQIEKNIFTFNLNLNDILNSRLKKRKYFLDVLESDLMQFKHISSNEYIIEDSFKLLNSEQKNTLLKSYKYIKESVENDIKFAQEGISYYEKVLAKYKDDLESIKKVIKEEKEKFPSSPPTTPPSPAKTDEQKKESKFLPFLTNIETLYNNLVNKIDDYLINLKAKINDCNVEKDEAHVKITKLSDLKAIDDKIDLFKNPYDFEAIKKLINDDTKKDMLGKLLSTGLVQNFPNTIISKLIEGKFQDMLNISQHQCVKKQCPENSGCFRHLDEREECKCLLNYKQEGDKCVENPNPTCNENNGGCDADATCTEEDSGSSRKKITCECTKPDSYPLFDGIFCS
# T2 sequence (P04933 1526-1618 S1528A): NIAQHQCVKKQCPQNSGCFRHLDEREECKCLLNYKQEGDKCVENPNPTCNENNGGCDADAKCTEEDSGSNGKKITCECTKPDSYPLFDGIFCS
compound,measurement,setting,value
Cc1ccc(C(=O)Nc2ccc(S(=O)(=O)O)c3cc(S(=O)(=O)O)cc(S(=O)(=O)O)c23)cc1NC(=O)c1cccc(NC(=O)Nc2cccc(C(=O)Nc3cc(C(=O)Nc4ccc(S(=O)(=O)O)c5cc(S(=O)(=O)O)cc(S(=O)(=O)O)c45)ccc3C)c2)c1 [suramin],Kd,P. falciparum MSP142,0.00022 mM
same,change of suramin emission intensity on binding to MSP142,P. falciparum MSP142; excited at 315 nm,pronounced increase in emission intensity
same,Kd,[1],~15 mM

# Source: patent US20070003987A1, “Screening method for substance binding to merozoite surface protein-1/42” (priority 2003, published 2007)
